Experiments:
[1] = ALS mouse model: bioanalysis of plasma, brain and CSF; assay type: in vivo, mice; conditions: 4-hour timepoint, after week 16
Experimental: At 16 weeks (9+7-week behavioral assessment), animals were dosed either with the vehicle or test compound and 4 hours post dosing, CSF, blood, and brain were collected for bioanalysis. Muscles (tibialis, soleus and gastrocnemius) and spinal cord were collected for histology (optional).
After completion of week 16 (9+7-week behavioral assessment), animals were dosed with the vehicle or test compound. 4 hours post dosing, CSF and blood (retro-orbitally) were collected under mild isoflurane anesthesia. Blood was centrifuged at 5000 rpm for 10 minutes at 4° C. and separated plasma was utilized for plasma drug concentration analysis. Then animals were euthanized, and brain tissue was collected. CSF, plasma and brain tissue samples from G3 and G4 were prepared for bioanalysis and compounds were extracted, and the supernatant was injected for LC-MS/MS bioanalysis. Drug concentration of compound I-8 was calculated from respective calibration curve for G3 and G4.

HDAC7 = molecular target: T1, HDAC7 (Homo sapiens, UniProt Q8WUI4); assay: HDAC selectivity panel: HDAC7; assay type: biochemical
T1 sequence (Q8WUI4 1-952): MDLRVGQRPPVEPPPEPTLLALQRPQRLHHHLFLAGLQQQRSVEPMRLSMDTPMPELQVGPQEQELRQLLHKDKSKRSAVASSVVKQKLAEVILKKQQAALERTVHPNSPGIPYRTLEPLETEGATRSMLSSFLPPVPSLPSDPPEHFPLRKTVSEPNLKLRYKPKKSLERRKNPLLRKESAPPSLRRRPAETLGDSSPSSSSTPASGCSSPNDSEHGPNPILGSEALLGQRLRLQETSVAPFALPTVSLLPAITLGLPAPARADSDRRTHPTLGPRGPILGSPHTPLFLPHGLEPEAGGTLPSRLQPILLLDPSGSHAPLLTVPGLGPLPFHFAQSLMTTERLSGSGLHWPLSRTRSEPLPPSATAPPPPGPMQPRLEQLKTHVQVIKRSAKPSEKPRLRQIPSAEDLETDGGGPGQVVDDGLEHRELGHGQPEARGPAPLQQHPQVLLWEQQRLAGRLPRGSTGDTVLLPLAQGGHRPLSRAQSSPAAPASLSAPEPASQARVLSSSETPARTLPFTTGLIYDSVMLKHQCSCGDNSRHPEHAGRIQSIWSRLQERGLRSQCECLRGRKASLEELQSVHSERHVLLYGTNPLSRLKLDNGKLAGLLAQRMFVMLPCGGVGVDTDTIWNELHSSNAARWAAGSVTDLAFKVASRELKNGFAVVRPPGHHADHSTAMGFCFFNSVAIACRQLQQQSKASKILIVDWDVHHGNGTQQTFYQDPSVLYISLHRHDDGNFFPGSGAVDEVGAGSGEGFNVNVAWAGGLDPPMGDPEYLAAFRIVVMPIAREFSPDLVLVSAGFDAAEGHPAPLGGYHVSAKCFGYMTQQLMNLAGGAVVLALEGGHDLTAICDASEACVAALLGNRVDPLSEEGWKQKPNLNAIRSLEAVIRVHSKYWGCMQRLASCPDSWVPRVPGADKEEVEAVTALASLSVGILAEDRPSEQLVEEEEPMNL

[2] = test system: acetyl-α-tubulin in SH-SY5Y neuroblastoma cells; assay: ICC dose response of acetylated alpha-tubulin in SH-SY5Y neuroblastoma cells; assay type: cell-based; conditions: 24-hour treatment
Experimental: Cell Seeding: Seeded at 2,000 cells/well in 384-well plates 24-hours prior to compound treatment
Compound Treatment: 24-hour
HDAC6 inhibitor compounds tested (1 control and 6 experimental)
9-point dose-response curves for all compounds, starting at 30 μM with 3-fold serial dilutions
4 technical replicate wells per condition tested
Cells were seeded in 90 μL media. 10 μL of 10× compound solutions added to 90 μL media for 24-hours
Fixation: 4% PFA for 15 minutes (after removing all media and washing with DPBS+0.1% Tween-20)
Permeabilization: 0.1% Triton X-100 for 20 minutes
Primary antibody: acetyl-α-tubulin (Lys40/D20G3; Cell Signaling Technologies, #5335S) 1:1000 dilution in DPBS+5% goat serum+0.1% Tween-20, 1 hour at room temp on orbital shaker
Secondary antibody: Goat anti-Rabbit IgG (H+L) Highly Cross-Adsorbed Secondary Antibody, Alexa Fluor™ Plus 488, Catalog #A32731, 1:1000 dilution+Hoechst 33342, 1:10,000 dilution in DPBS+5% goat serum+0.1% Tween-20, 1 hour at room temp on orbital shaker
High-content imaging system: Image Xpress Micro Confocal from Molecular Devices […]
Integrated fluorescence intensity of acetyl-α-tubulin was calculated using an automated image-analysis algorithm in Meta Xpress software
Average intensity per cell was calculated by dividing the integrated fluorescence intensity by the number of nuclei. […]

[3] = test system: B6SJL.SOD1-G93A transgenic mouse model of amyotrophic lateral sclerosis; assay: ALS mouse model: neurological scoring; assay type: in vivo, mice; conditions: scale of 4-0
Experimental: At week 9, animals were treated either with vehicle or compound I-8 per orally Q.D. Animals were scored (twice in a week until week 12 and every day thereafter until termination) for motor impairment using Vercelli neurological scoring system at the scale of 4-0. Animals were subjected to different tests for motor coordination and muscle strength assessment once in two weeks.
Animals were scored for motor deficits using the scoring system: • 4—Normal/no sign of motor dysfunction • 3—Presence of hindlimb tremors when suspended by tail • 2—Presence of gait abnormalities • […]—Dragging at least one hindlimb • Absence of right reflex within 30 seconds
Animals were scored twice a week from initiation of treatment until week 12 and everyday thereafter until termination.

[4] = G4 50 mg/kg p.o. (30 mg/kg until day 33)

CC1CN(Cc2ccc(Nc3nccc(-c4ccc(C(=O)NO)cc4)n3)cc2F)CCO1 (racemic) [Compound I-8, 4-(2-((3-fluoro-4-((2-methylmorpholino)methyl)phenyl)amino)pyrimidin-4-yl)-N-hydroxybenzamide]
Brain drug concentration (Mean) ([1]; G3 15 mg/kg p.o.): 2.34 | Plasma drug concentration (Mean) ([1]; G3 15 mg/kg p.o.): 12.35 | Brain drug concentration (Mean) [1, 4]: 3.87 | CSF drug concentration (Mean) [1, 4]: 2.70 | Plasma drug concentration (Mean) [1, 4]: 136.15 | IC50 (HDAC7): 12.4 µM | increase in acetyl-α-tubulin (ICC) [2]: induce acetylation of α-tubulin in SH-SY5Y neuroblastoma cells in a dose-dependent manner | Neurological scoring ([3]; G3 15 mg/kg p.o. QD, Day 1): 4 ± 0 | Neurological scoring ([3]; G3 15 mg/kg p.o. QD, Day 7): 4 ± 0 | Neurological scoring ([3]; G3 15 mg/kg p.o. QD, Day 13): 3.89 ± 0.11 | Neurological scoring ([3]; G3 15 mg/kg p.o. QD, Day 21): 3.44 ± 0.18 | Neurological scoring ([3]; G3 15 mg/kg p.o. QD, Day 28): 3.11 ± 0.26 | Neurological scoring ([3]; G3 15 mg/kg p.o. QD, Day 35): 2.22 ± 0.22 | Neurological scoring ([3]; G3 15 mg/kg p.o. QD, Day 42): 2.11 ± 0.20 | Neurological scoring ([3]; G3 15 mg/kg p.o. QD, Day 49): 1.89 ± 0.20 | Neurological scoring ([3]; G3 15 mg/kg p.o. QD, Day 52): 1.56 ± 0.29 | Neurological scoring ([3]; G4 30 mg/kg (50 mg/kg from day 34) p.o. QD, Day 1): 4 ± 0 | Neurological scoring ([3]; G4 30 mg/kg (50 mg/kg from day 34) p.o. QD, Day 7): 4 ± 0 | Neurological scoring ([3]; G4 30 mg/kg (50 mg/kg from day 34) p.o. QD, Day 13): 3.75 ± 0.16 | Neurological scoring ([3]; G4 30 mg/kg (50 mg/kg from day 34) p.o. QD, Day 21): 3.5 ± 0.19 | Neurological scoring ([3]; G4 30 mg/kg (50 mg/kg from day 34) p.o. QD, Day 28): 3 ± 0.27 | Neurological scoring ([3]; G4 30 mg/kg (50 mg/kg from day 34) p.o. QD, Day 35): 2.25 ± 0.25 | Neurological scoring ([3]; G4 30 mg/kg (50 mg/kg from day 34) p.o. QD, Day 42): 2.13 ± 0.23 | Neurological scoring ([3]; G4 30 mg/kg (50 mg/kg from day 34) p.o. QD, Day 49): 1.88 ± 0.30 | Neurological scoring ([3]; G4 30 mg/kg (50 mg/kg from day 34) p.o. QD, Day 52 (n = 6-8)): 2 ± 0.26

From patent US20260109690A1, “HDAC6 INHIBITORS AND METHOD OF THEIR USE” (Baerenkraft Therapeutics, LLC., priority 2024, published 2026)
